Data on 15 compounds can be found in patent US20220340629A1, “Myosin Derived Peptides and Related Compounds with Anticoagulant Activities” (THE SCRIPPS RESEARCH INSTITUTE, priority 0001, published 2022).

Where two headings read alike, the source gives them in different places. Starred links: 1 amine or outer side, 2 acyl side, 3 side chain; linkers in the order of their positions; H or OH if unused. Positions of bridges follow the written chain, without caps; N, C: chain ends. Non-standard residues stand in square brackets, D forms with d. Residues, ends and D or L forms follow the SMILES beside them. NMeH = CN[C@@H](Cc1c[nH]cn1)C(=O)O; NMeI = CC[C@H](C)[C@H](NC)C(=O)O; Suc = O=C(CCC(=O)[*:2])[*:1]; NMeA = CN[C@@H](C)C(=O)O; Nle = CCCC[C@H](N)C(=O)O

Experiment [1] deals with skeletal muscle myosin-supported prothrombin activation by factors Xa and Va. In words: Assay 1A: prothrombin activation by factor Xa/factor Va/myosin in purified system. Particulars: for inhibition of myosin's procoagulant activity: data not shown; for inhibition of myosin-supported prothrombin activation at 100 μM: peptide 100 μM, FIG. 1A. Type of experiment: biochemical, human factors Xa and Va; rabbit skeletal muscle myosin.

Experiment [2] relates to thrombin generation in human platelet poor plasma with skeletal muscle myosin. In words: Assay 2A: thrombin generation, recalcification of human platelet poor plasma + myosin. The format is biochemical. Particulars: human platelet poor plasma 30%, myosin 50 nM, CaCl2 10 mmol/L; read-out: 2A (recalcification +myosin). The protocol: Activities of the various peptides and derivative compounds were also examined via assays using recalcification of human plasma. [One of] these assay format (2A) involves monitoring thrombin generation in platelet poor plasma (PPP). Specifically, pooled normal human platelet poor plasma (PPP) (obtained from George King Bio Medical Inc., Overland Park, Kans.) (30%) was incubated with skeletal muscle myosin at 50 nM in the presence of peptide in DMSO or DMSO alone for 5 min at 37° C. Then, fluorogenic thrombin substrate solution (Z-Gly-Gly-Arg-AMC) (I-1140) with CaCl2 (10 mmol/L final) alone was added to the reaction mixture (total 110 μl) to initiate coagulation. Thrombin generation was followed continuously for 25 min using SPECTRAmax GEMINI XS fluorometer (Molecular Devices, Sunnyvale, Calif.) with excitation and emission wavelengths set at 360 and 460 nm, respectively. The first derivative of fluorescence versus time was used to produce thrombin generation curves with the correction for substrate consumption and inner filter effect. For this assay 96 well plate (total 110 μL) or 384 well plates (total 30 μL) were used.
Activities obtained from Assay 2A (recalcification of human plasma in the presence of myosin) were used to rank the various peptides listed in Table 3. As noted above, this assay monitors recalcification of plasma to stimulate thrombin generation. In this assay, potency of the compounds was determined as the peptide concentration for 50% inhibition of thrombin generation, defined as “IC50”.

Experiment [3] concerns the target skeletal muscle myosin-supported prothrombin activation by factors Xa and Va (Homo sapiens, UniProt P00742). In words: Assay 1A: prothrombin activation by factor Xa/factor Va/myosin in purified system. The format is biochemical, human factors Xa and Va; rabbit skeletal muscle myosin. As to conditions: purified system.
Setting [4] is: prothrombin activation with myosin, read-out: 1A (+ myosin) IC50.

Chain of skeletal muscle myosin-supported prothrombin activation by factors Xa and Va (Homo sapiens, UniProt P00742) (P00742 41-179): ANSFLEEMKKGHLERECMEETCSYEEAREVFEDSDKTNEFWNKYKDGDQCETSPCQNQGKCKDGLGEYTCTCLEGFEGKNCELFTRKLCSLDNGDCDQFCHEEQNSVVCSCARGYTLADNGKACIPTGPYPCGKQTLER
Chain of skeletal muscle myosin-supported prothrombin activation by factors Xa and Va (Homo sapiens, UniProt P00742) (P00742 235-488): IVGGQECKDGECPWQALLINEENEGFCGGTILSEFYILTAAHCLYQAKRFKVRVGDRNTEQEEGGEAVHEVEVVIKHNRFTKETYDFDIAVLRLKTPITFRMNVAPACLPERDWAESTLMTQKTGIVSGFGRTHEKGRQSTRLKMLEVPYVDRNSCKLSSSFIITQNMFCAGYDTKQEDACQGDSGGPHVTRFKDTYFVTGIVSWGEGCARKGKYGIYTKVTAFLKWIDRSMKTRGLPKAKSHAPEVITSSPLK
Chain of skeletal muscle myosin-supported prothrombin activation by factors Xa and Va (Homo sapiens, UniProt P00742) (P12259 29-737 partner): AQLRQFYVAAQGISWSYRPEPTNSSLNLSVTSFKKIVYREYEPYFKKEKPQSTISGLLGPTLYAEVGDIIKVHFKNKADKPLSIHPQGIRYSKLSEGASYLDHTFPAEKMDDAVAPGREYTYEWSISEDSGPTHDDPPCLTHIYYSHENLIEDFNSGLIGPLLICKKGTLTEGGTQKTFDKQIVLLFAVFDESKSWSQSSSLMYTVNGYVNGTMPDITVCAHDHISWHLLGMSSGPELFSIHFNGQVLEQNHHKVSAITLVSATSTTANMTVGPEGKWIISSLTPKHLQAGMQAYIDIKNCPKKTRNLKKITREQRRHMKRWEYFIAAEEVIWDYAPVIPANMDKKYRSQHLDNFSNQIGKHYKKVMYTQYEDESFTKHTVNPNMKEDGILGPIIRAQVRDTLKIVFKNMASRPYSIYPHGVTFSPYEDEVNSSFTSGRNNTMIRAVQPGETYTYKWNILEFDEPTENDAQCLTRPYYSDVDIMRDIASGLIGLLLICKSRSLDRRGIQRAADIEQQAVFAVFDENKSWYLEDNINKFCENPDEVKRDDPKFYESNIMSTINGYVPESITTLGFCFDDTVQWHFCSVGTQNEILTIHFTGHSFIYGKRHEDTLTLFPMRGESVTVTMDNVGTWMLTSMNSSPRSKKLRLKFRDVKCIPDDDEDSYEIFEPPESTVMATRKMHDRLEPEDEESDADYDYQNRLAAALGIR
Chain of skeletal muscle myosin-supported prothrombin activation by factors Xa and Va (Homo sapiens, UniProt P00742) (P12259 1574-2224 partner): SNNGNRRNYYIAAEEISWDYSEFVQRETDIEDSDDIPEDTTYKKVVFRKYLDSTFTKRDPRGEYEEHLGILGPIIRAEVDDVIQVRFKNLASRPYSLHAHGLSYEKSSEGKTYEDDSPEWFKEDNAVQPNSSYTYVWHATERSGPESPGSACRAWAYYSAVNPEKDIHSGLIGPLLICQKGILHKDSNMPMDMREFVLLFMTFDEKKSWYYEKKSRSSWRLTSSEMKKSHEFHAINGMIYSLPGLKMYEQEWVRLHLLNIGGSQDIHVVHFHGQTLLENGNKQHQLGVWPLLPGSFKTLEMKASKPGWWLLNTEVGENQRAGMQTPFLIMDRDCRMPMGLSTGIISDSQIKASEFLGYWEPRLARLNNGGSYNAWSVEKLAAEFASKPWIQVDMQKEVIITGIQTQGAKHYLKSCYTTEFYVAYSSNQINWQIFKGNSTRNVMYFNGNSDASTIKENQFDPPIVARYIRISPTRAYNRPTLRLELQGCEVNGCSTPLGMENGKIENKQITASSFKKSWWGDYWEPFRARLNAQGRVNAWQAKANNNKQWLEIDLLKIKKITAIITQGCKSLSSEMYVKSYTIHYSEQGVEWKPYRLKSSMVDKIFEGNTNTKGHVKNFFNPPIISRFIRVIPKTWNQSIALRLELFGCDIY

Turning to `Cc1ccc2c(c1)C(=O)C1(O)CCN(c3ccccc3)C1=N2` (single isomer, unassigned; (-)) [(-) blebbistatin, reference compound], the “inhibition of myosin's procoagulant activity” value in experiment [1] (up to 65 μM) is on record as “did not inhibit”.

Regarding `CC[C@H](C)[C@H](NC(=O)[C@H](C)NC(=O)[C@H](CCC(=O)O)NC(=O)[C@H](CCCNC(=N)N)NC(=O)[C@H](CCCNC(=N)N)NC(=O)[C@H](CCC(=O)O)NC(=O)[C@@H](NC(=O)[C@H](CCSC)NC(=O)[C@H](CCCNC(=N)N)NC(=O)[C@H](CCC(N)=O)NC(=O)[C@H](Cc1ccc(O)cc1)NC(=O)[C@H](CCC(=O)O)NC(=O)[C@@H](NC(=O)[C@H](CCCNC(=N)N)NC(=O)[C@H](C)NC(=O)[C@H](CC(C)C)NC(=O)[C@H](Cc1ccccc1)NC(=O)CNC(=O)[C@H](CCCNC(=N)N)NC(=O)[C@H](CS)NC(=O)[C@H](CCCNC(=N)N)NC(=O)[C@H](C)N)C(C)C)C(C)C)C(=O)N[C@@H](Cc1ccccc1)C(=O)N[C@@H](CS)C(=O)N[C@H](C(=O)N[C@@H](CCC(N)=O)C(=O)N[C@H]1CCCCNC(=O)CCC(=O)NCCCC[C@@H](C(=O)N[C@H](C(=O)N[C@@H](CCCCN)C(=O)N[C@@H](Cc2c[nH]cn2)C(=O)N[C@@H](Cc2c[nH]c3ccccc23)C(=O)N2CCC[C@H]2C(=O)N[C@@H](Cc2c[nH]c3ccccc23)C(N)=O)C(C)C)NC(=O)[C@H](CCSC)NC(=O)[C@H](Cc2ccccc2)NC(=O)[C@H](CO)NC(=O)[C@H](CCCNC(=N)N)NC(=O)[C@H]([C@@H](C)CC)NC(=O)[C@H](CC(N)=O)NC1=O)[C@@H](C)CC` [HC077] (H-ARCRGFLARVEYQRMVERREAIFCIQKNIRSFMKVKHWPW-NH2; linker 27-34 via Suc; N-terminus and C-terminus assumed), in experiment [2], the IC50 is 15 µM.

For the compound `CCCC[C@H](NC(=O)[C@H](Cc1ccccc1)NC(=O)[C@H](CO)NC(=O)[C@H](CCCNC(=N)N)NC(=O)[C@@H](NC(=O)[C@H](CC(N)=O)NC(=O)[C@H](Cc1ccc(O)cc1)NC(=O)[C@H](CCC(N)=O)NC(=O)[C@@H](NC(=O)[C@H](CS)NC(=O)[C@H](Cc1ccccc1)NC(=O)[C@@H](NC(=O)[C@H](C)NC(=O)[C@H](CCC(=O)O)NC(=O)[C@H](CCCNC(=N)N)NC(=O)[C@H](CCCNC(=N)N)NC(=O)[C@H](CCC(=O)O)NC(=O)[C@@H](NC(=O)[C@H](CCCC)NC(=O)[C@H](CCCNC(=N)N)NC(=O)[C@H](CCC(N)=O)NC(=O)[C@H](Cc1ccc(O)cc1)NC(=O)[C@H](CCC(=O)O)NC(=O)[C@@H](NC(=O)[C@H](CCCNC(=N)N)NC(=O)[C@H](C)NC(=O)[C@H](CC(C)C)NC(=O)[C@H](Cc1ccccc1)NC(=O)CNC(=O)[C@H](CCCNC(=N)N)NC(=O)[C@H](CS)NC(=O)[C@H](CCCNC(=N)N)NC(=O)[C@H](C)N)C(C)C)C(C)C)[C@@H](C)CC)[C@@H](C)CC)[C@@H](C)CC)C(=O)N[C@@H](CC(N)=O)C(=O)N[C@H](C(=O)N[C@@H](CCCCN)C(=O)N[C@@H](Cc1c[nH]cn1)C(=O)N[C@@H](Cc1c[nH]c2ccccc12)C(=O)N1CCC[C@H]1C(=O)N[C@@H](Cc1c[nH]c2ccccc12)C(N)=O)C(C)C` [HC095] (H-ARCRGFLARVEYQR[Nle]VERREAIFCIQYNIRSF[Nle]NVKHWPW-NH2; N-terminus and C-terminus assumed), the IC50 in experiment [2] came to 10 µM.

Turning to `CCCC[C@H](NC(=O)[C@H](Cc1c[nH]c2ccccc12)NC(=O)[C@@H]1CCCN1C(=O)[C@H](Cc1c[nH]c2ccccc12)NC(=O)[C@H](Cc1c[nH]cn1)NC(=O)[C@H](CCCCN)NC(=O)[C@@H](NC(=O)[C@H](CC(N)=O)NC(=O)[C@H](CCCC)NC(=O)[C@H](Cc1ccccc1)NC(=O)[C@H](CO)NC(=O)[C@H](CCCNC(=N)N)NC(=O)[C@@H](NC(=O)[C@H](CC(N)=O)NC(=O)[C@H](Cc1ccc(O)cc1)NC(=O)[C@H](CCC(N)=O)NC(=O)[C@@H](NC(=O)[C@H](CS)NC(=O)[C@H](Cc1ccccc1)NC(=O)[C@@H](NC(=O)[C@H](C)NC)[C@@H](C)CC)[C@@H](C)CC)[C@@H](C)CC)C(C)C)C(=O)N[C@@H](CCCCN)C(N)=O` [HC190] (H-[NMeA]IFCIQYNIRSF[Nle]NVKHWPW[Nle]K-NH2; N-terminus assumed), the IC50 in experiment [3] (skeletal muscle myosin, factor Va 5 nM, factor Xa 0.2 nM, prothrombin 0.75 μM, 10 min, read-out: 1A (+myosin)) amounted to 3.6 µM.

On to `CCCC[C@H](NC(=O)[C@H](Cc1c[nH]c2ccccc12)NC(=O)[C@@H]1CCCN1C(=O)[C@H](Cc1c[nH]c2ccccc12)NC(=O)[C@H](Cc1c[nH]cn1)NC(=O)[C@H](CCCCN)NC(=O)[C@@H](NC(=O)[C@H](CC(N)=O)NC(=O)[C@H](CCCC)NC(=O)[C@H](Cc1ccccc1)NC(=O)[C@H](CO)NC(=O)[C@H](CCCNC(=N)N)NC(=O)[C@@H](NC(=O)[C@H](CC(N)=O)NC(=O)[C@H](Cc1ccc(O)cc1)NC(=O)[C@H](CCC(N)=O)NC(=O)[C@@H](NC(=O)[C@H](CS)NC(=O)[C@H](Cc1ccccc1)NC(=O)[C@H](C)N(C)C(=O)[C@H](C)N)[C@@H](C)CC)[C@@H](C)CC)C(C)C)C(=O)N[C@@H](CCCCN)C(N)=O` [HC191] (H-A[NMeA]FCIQYNIRSF[Nle]NVKHWPW[Nle]K-NH2; N-terminus assumed), for which, in experiment [3] (setting [4]), the IC50 was 1.6 µM.

Consider `CCCC[C@H](NC(=O)[C@H](Cc1c[nH]c2ccccc12)NC(=O)[C@@H]1CCCN1C(=O)[C@H](Cc1c[nH]c2ccccc12)NC(=O)[C@H](Cc1c[nH]cn1)NC(=O)[C@H](CCCCN)NC(=O)[C@@H](NC(=O)[C@H](CC(N)=O)NC(=O)[C@H](CCCC)NC(=O)[C@H](Cc1ccccc1)NC(=O)[C@H](CO)NC(=O)[C@H](CCCNC(=N)N)NC(=O)[C@@H](NC(=O)[C@H](CC(N)=O)NC(=O)[C@H](Cc1ccc(O)cc1)NC(=O)[C@H](CCC(N)=O)NC(=O)[C@@H](NC(=O)[C@H](CS)NC(=O)[C@H](Cc1ccccc1)NC(=O)[C@H]([C@@H](C)CC)N(C)C(=O)[C@H](C)N)[C@@H](C)CC)[C@@H](C)CC)C(C)C)C(=O)N[C@@H](CCCCN)C(N)=O` [HC192] (H-A[NMeI]FCIQYNIRSF[Nle]NVKHWPW[Nle]K-NH2; N-terminus assumed), for which the IC50 in experiment [3] (setting [4]) turned out to be 2.2 µM.

With `CCCC[C@H](NC(=O)[C@H](Cc1c[nH]c2ccccc12)NC(=O)[C@@H]1CCCN1C(=O)[C@H](Cc1c[nH]c2ccccc12)NC(=O)[C@H](Cc1c[nH]cn1)N(C)C(=O)[C@H](CCCCN)NC(=O)[C@@H](NC(=O)[C@H](CC(N)=O)NC(=O)[C@H](CCCC)NC(=O)[C@H](Cc1ccccc1)NC(=O)[C@H](CO)NC(=O)[C@H](CCCNC(=N)N)NC(=O)[C@@H](NC(=O)[C@H](CC(N)=O)NC(=O)[C@H](Cc1ccc(O)cc1)NC(=O)[C@H](CCC(N)=O)NC(=O)[C@@H](NC(=O)[C@H](CS)NC(=O)[C@H](Cc1ccccc1)NC(=O)[C@@H](NC(=O)[C@H](C)N)[C@@H](C)CC)[C@@H](C)CC)[C@@H](C)CC)C(C)C)C(=O)N[C@@H](CCCCN)C(N)=O` [HC200] (H-AIFCIQYNIRSF[Nle]NVK[NMeH]WPW[Nle]K-NH2; N-terminus assumed), the IC50 in experiment [3] (setting [4]) was determined as 1.4 µM.

`Cc1ccc(S(=O)(=O)NCc2ccccc2)cc1` [N-benzyl-p-toluene sulfonamide, reference compound]: in experiment [1] (up to 0.7 mM), the “inhibition of myosin's procoagulant activity” value was “did not inhibit”.

With `CN1CCN(CCCN2c3ccccc3Sc3ccc(C(F)(F)F)cc32)CC1` [TFP, trifluoperazine, reference compound], the “inhibition of myosin-supported prothrombin activation” value in experiment [1] (dose-dependent studies, FIG. 4, TFP 0-100 μM, ELC peptides 0-300 μM) is listed as “inhibits”.

Turning to `COC(=O)N1CCN(Cc2cccc(NC(=O)Nc3ccc(C)nc3)c2F)CC1` [omecamtiv mecarbil, reference compound], the “inhibition of myosin's procoagulant activity” value in experiment [1] (up to 50 μM) is listed as “did not inhibit”.

For the compound “Ac-GAELRHVLATLGEKMKEEEVEALMA-NH (Ac-GAELRHVLATLGEKMKEEEVEALMA-NH2) [ELC149-173]”, in experiment [1], the “inhibition of myosin-supported prothrombin activation at 100 μM” value is recorded as “did not”.

In the case of “Ac-SNEELNAKKIEFEQFLPMMQAISN-NH2 [ELC99-122]”, in experiment [1], the “inhibition of myosin-supported prothrombin activation at 100 μM” value is “did not”.

As to “QEEIKNMWAAFPPDVGGNVDYKNICYVITH (Ac-QEEIKNMWAAFPPDVGGNVDYKNICYVITH-NH2) [RLC133-162]”, the IC50 in experiment [3] (setting [4]) came out at 25 µM.

“RVFDKEGNGTVMGAELRHVL (Ac-RVFDKEGNGTVMGAELRHVL-NH2) [ELC138-157]”: the IC50 in experiment [3] (setting [4]) came out at 75 µM.

Regarding “YEDFVEGLRVFDKEGN (Ac-YEDFVEGLRVFDKEGN-NH2) [ELC129-144]”, in experiment [3] (setting [4]), the IC50 is ~70 µM.
